Entries after “also recorded” stand apart in the source; their conditions may differ.

One series deals with T1, tau protein (Homo sapiens, UniProt P10636, A469T).
T1 construct: cultured human differentiated frontotemporal lobar dementia (FTD) neurons; endogenous in cells; host or cells: human differentiated FTD neurons, tau-A152T (line 19-5-RC6)
Nature of the series: Tau degradation assay (western blot) in human tau-A152T neurons. Type of series: cell-based. As to conditions: 6-week differentiated A152T neurons; treatment for 24 hours; FIG. 6. The method, then: Example compounds 1-12 were evaluated for their ability to degrade tau protein in cultured human differentiated frontotemporal lobar dementia (FTD) neurons. […] For each condition, 1 well of differentiated neuronal cells (6 well-plate) was washed and collected in PBS, pelleted and lysed in RIPA buffer (Boston Bio-Products) with 2% SDS (Sigma), protease inhibitors (Roche Complete Mini tablets), and phosphatase inhibitors (Sigma), followed by sonication in a water sonicator (Bransonic Ultrasonic Baths, Thomas Scientific) for 5 min, and centrifugation at 20,000 g for 15 min. Supernatants were transferred to new tubes, total protein concentration was quantified with the Pierce BCA Protein Assay Kit (Thermo), and SDS-PAGE gels were loaded with 10 μg total protein per well (pre-boiled samples). Western blots were performed with the Novex NuPAGE SDS-PAGE Gel System (Invitrogen). All samples were resolved in 7% Tris-Acetate gels with Tris-Acetate running buffer (Invitrogen). Blots were probed with antibodies against total tau (TAU5) and phosphosrylated tau (Ser396), along with β-actin as a loading control; followed by corresponding HRP-linked secondary antibodies (Cell Signaling Technology), and SuperSignal West Pico Chemiluminescent Substrate (Thermo) detection. Membranes were exposed to autoradiographic film (LabScientific) and films were scanned using an Epson Perfection V800 Photo Scanner. Protein band intensities (pixel mean intensity) were quantified using Adobe Photoshop CS5 Histogram function. Whereas the vehicle alone (DMSO) had no effect on tau, varying degrading activity was observed amongst the compounds, however with overall similar relative levels of degrading activity between tau-A152T neurons and tau-P301L neurons. Compounds were added at the doses indicated of either 0.1, 1, 5, or 10 μM.
Four-week differentiated neurons, both non-mutant (8330-8) and tau-A152T (19-5-RC6) were employed. The neurons were treated with T807 for 24 hours (at 10 μg/mL=59.4 μM). One well of differentiated neuronal cells (6 well-plate, treated or untreated) was washed and collected in PBS, pelleted and directly lysed in 200 μL of Sample Buffer (New England Biolabs) supplemented with 3X DTT, boiled for 15 min and 10 μL of each lysate was run by SDS-PAGE in a 4-12% Bis-Tris Gel, with MOPS running buffer. Blots were probed with antibodies to total tau (DA9) and phosphorylated tau (Ser396, PHF1, AT8) along with GAPDH as a loading control.
Example compounds 2-5 were reevaluated for their ability to degrade tau protein in human FTD neurons as well as evaluate their effect on E3 ubiquitin ligases CRBN, VHL, and CHIP (FIG. 4A-E). For each control and treatment, 1 well of differentiated neuronal cells (6 well-plate) was washed and collected in PBS, pelleted and lysed in RIPA buffer (Boston Bio-Products) with 2% SDS (Sigma), protease inhibitors (Roche Complete Mini tablets), and phosphatase inhibitors (Sigma), followed by sonication in a water sonicator (Bransonic Ultrasonic Baths, Thomas Scientific) for 5 min, and centrifugation at 20,000 g for 15 min. Supernatants were transferred to new tubes, total protein concentration was quantified with the Pierce BCA Protein Assay Kit (Thermo), and SDS-PAGE gels were loaded with 10 μg total protein per well (pre-boiled samples). […] Protein band intensities (pixel mean intensity) were quantified using Adobe Photoshop CS5 Histogram function. […]
On the technique in general: In western blotting, separated proteins are transferred to a membrane and probed.

A short description of series [1]: Tolerability monitoring of mice for up to 24 hours. Type of series: in vivo. To be noted: male CD-1 mice, 30 mg/kg intraperitoneal, monitored up to 24 hours. On the procedure: (§1) To determine whether the compounds of the present disclosure are capable of crossing the blood brain barrier (BBB), a key property for use of these compounds as CNS therapeutics, compound 3 was administered to mice in a pharmacokinetic study of plasma and brain tissue. A stable formulation compatible with chronic administration was prepared prior to administration, and analytical methods for measuring concentration of the compound in plasma and brain tissue were developed. Mice were additionally monitored for tolerability for up to 24 hours.

A further series has as its system A152T neurons. As to the kind of experiment: Neuronal viability / rescue of stress vulnerability to β-amyloid (1-42) peptide. As to conditions: A152T neurons differentiated 8 weeks, FIG. 7.
The nature of series [2]: Dose formulation in 20% PEG400 in water. Type of series: physicochemical. To be noted: 5.00 mg/mL in 20% PEG400 in water. On the procedure: (§2) For intraperitoneal (IP) dosing, the dose formulation was administered with a dose volume determined by the animals' body weight collected on the morning of dosing day.
The nature of series [3]: In vivo pharmacokinetic study of plasma and brain tissue in mice. As to conditions: male CD-1 mice, 30 mg/kg intraperitoneal. On the procedure: as §1
Animal Husbandry: Male CD-1 mice were group housed during a 2-3 day acclimation prior to the study at an animal room environment with a controlled environment (target conditions: temperature 18-26° C., relative humidity 30-70%, 12 hours artificial light and 12 hours dark). All animals had access to Certified Rodent Diet and water ad libitum.
as §2
Sample Collection & Processing:
Blood Samples: A blood sample (about 0.03 mL per time point) was collected from each mouse into polypropylene tubes at each timepoint. All blood samples were transferred into pre-chilled commercial EDTA-K2 tubes or pre-chilled plastic microcentrifuge tubes containing 2 μL of EDTA-K2 as anti-coagulant and placed on wet ice until centrifugation. Each collected blood sample was centrifuged for 15 minutes at 4° C. and 3000 g for plasma collection. Plasma from each mouse was transferred into a pre-labeled polypropylene tube in dry ice at each time point. After terminal collection, all plasmas were stored at approximately −80° C. until bioanalysis.
Brain Samples: Whole brain was dissected at each designated time point and rinsed twice cold in deionized water before processing. They were then blotted on filter paper, weighed and homogenized with 5-fold of cold 15 mM PBS/MeOH (V:V, 2:1) using mechanical method. The samples were kept with ice water when homogenizing, and further stored at −80° C. until bioanalysis.
Bioanalytical Method Development: A LC-MS/MS method was developed and used for the quantitative determination of test compound concentration in blood and brain with a calibration curve applied to determine the limits of quantification.
In Vivo Sample Analysis: Plasma and brain concentration versus time data along with C^max, Tmax, T1/2, and AUC(0-t) was analyzed by non-compartmental approaches using the Phoenix WinNonlin 6.3 software program.

T1 sequence (P10636 1-441 isoform P10636-8 A152T): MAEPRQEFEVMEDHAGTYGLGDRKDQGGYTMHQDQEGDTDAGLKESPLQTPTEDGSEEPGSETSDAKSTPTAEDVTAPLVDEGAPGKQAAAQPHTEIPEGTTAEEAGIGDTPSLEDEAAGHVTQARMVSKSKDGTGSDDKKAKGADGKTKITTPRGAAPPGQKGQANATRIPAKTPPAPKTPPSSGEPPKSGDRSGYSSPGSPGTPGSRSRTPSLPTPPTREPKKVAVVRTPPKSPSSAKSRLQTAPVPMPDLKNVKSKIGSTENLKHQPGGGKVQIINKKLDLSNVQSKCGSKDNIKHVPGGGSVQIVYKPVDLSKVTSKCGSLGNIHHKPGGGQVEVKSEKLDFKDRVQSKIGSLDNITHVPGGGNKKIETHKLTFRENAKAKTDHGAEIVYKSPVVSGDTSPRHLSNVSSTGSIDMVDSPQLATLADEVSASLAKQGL

Consider `O=C(CCc1ccc2c(c1)[nH]c1ccncc12)NCCOCCOCCNc1cccc2c1C(=O)N(C1CCC(=O)NC1=O)C2=O` (stereo not shown) [Compound 3, N-(2-(2-(2-((2-(2,6-dioxopiperidin-3-yl)-1,3-dioxoisoindolin-4-yl)amino)ethoxy)ethoxy)ethyl)-3-(5H-pyrido[4,3-b]indol-7-yl)propanamide], for which the “dose-dependency of effect on tau” value at tau protein is recorded as “dose dependent effect on tau”. In series [1], the “tolerability / adverse effects” value was “no adverse effects were observed; also recorded: well tolerated”. In the series with A152T neurons (8 h pre-treatment, then 10 μM β-amyloid (1-42) peptide for 16 h), the “rescue of stress vulnerability” value was “effective at rescuing stress vulnerability”. The “effect on neuronal viability” value in the series on A152T neurons (compound alone) is “no effect on neuronal viability”. For the same compound, the “appearance/stability of dose formulation” value in series [2] is listed as “clear, stable solution”. Further, the “brain penetration / crossing the blood-brain barrier” value in series [3] (20% PEG400/water, n=3 per group, 30 mg/kg) is recorded as “capable of brain penetration; also recorded: capable of crossing the blood-brain barrier”. Moreover, in series [3] (brain), the “AUC0-last, Mean Brain” value came out at 74.3 ng·h/mL; the “Cmax, Mean Brain” value is 56.4 ng/mL; the “Tmax, Mean Brain” value worked out at 0.500 h. For the same compound, in series [3] (plasma), the “AUC0-last, Mean Plasma” value came out at 6938 ng·h/mL; the “Cmax, Mean Plasma” value was found to be 4640 ng/mL; the “T1/2, Mean Plasma” value amounted to 7.23 h; the “Tmax, Mean Plasma” value worked out at 1.00 h.

Values taken from US12622901B2, “Compounds for tau protein degradation” (Dana-Farber Cancer Institute, Inc., priority 2017, dated 2026).
